The source of these data is patent US20200407398A1, “Short Proline-Rich Lipopeptide Potentiates Minocycline and Rifampicin Against Multidrug-and Extensively Drug-Resistant Pseudomonas Aeruginosa” (priority 2018, published 2020).

Assay type in all cases: cell-based
The subject of one data set is pig erythrocytes. As to the method: Since PRAMPs are able to kill bacteria through membrane lysis, it is imperative to evaluate whether these synthesized SPRLPs also lyse eukaryotic membranes. The ability to lyse porcine red blood cells was assessed and the minimum concentration to result in 5% erythrocyte hemolysis (MHC) was reported (Tables 2 & 3). […] This greatly limits their therapeutic potential. […] However, all other SPRLPs were non-hemolytic (MHC>512 μg/mL).
The ability of SPRLPs to lyse eukaryotic red blood cells were quantified by the amount of hemoglobin released upon incubation with pig erythrocytes, following published protocols (37, 39). Fresh pig blood drawn from pig antecubital vein was centrifuged at 1000×g for 5 minutes at 4° C., washed with PBS three times and re-suspended in the same buffer, consecutively. Then, agents of interest were 2-fold serially diluted in PBS on 96-well plate and mixed with equal volumes of erythrocyte solution. Post 1-hour incubation at 37° C., intact cells were pelleted by centrifugation at 1000×g for 5 minutes at 4° C. The supernatant was then transferred to a new 96-well plate. The hemoglobin released was measured via EMax Plus microplate reader (Molecular Devices, USA) at 570 nm wavelength. Erythrocytes in PBS with or without 0.1% Triton X-100 was used as negative or positive control, respectively.

Data set [1] relates to E. coli CAN-ICU 63074 (amikacin-intermediate resistant). Here is the method:
(§1) The synthesized SPRLPs were evaluated for their antibacterial potency against a panel of Gram-positive and Gram-negative bacteria (Tables 2 & 3). Some of the included pathogens were collected from patients visiting or admitted to participating Canadian hospitals through the CAN-ICU (27) and CANWARD (28) national surveillance studies. Antibacterial activity was assessed using minimum inhibitory concentration (MIC) against various clinical pathogens.
(§2) Isolates used in this study were either obtained from the American Type Culture Collection (ATCC), the Canadian National Intensive Care Unit (CAN-ICU) surveillance study (27) or the Canadian Ward Surveillance (CANWARD) study (28). Clinical isolates belonging to the CAN-ICU and CANWARD studies were recovered from patients suffering a presumed infectious disease entering or admitted in a participating medical center across Canada during the time of study. MDR P. aeruginosa strains in this study refer to those that are resistant to aminoglycosides, fluoroquinolones, cephalosporins, and carbapenems while XDR strains are those that are resistant to aminoglycosides, fluoroquinolones, cephalosporins, carbapenems, aztreonam and penicillin+β-lactamase inhibitor combination (39, 40).
(§3) Microbroth dilution susceptibility test following the Clinical and Laboratory Standards Institute (CLSI) guidelines (32) was performed to assess the in vitro antibacterial activity of SPRLPs. Overnight grown bacterial cultures were diluted in saline to achieve a 0.5 McFarland turbidity, followed by 1:50 dilution in Mueller-Hinton broth (MHB) for inoculation to a final concentration of 5×10^5 colony forming units/mL. The assay was done on a 96-well plate to which the agents of interest were 2-fold serially diluted in MHB and incubated with equal volumes of inoculum at 37° C. for 18 hours. MIC was determined as the lowest concentration to inhibit visible bacterial growth in form of turbidity, which was confirmed using EMax Plus microplate reader (Molecular Devices, USA) at a wavelength of 590 nm. The well containing MHB broth with or without bacterial cells was used as positive or negative control, respectively.

Data set [2] deals with E. coli CANWARD-2011 97615 (gentamicin-, tobramycin-, ciprofloxacin-resistant) aac(3′)iia. Here is the method:
as §1, §2, §3

In data set [3] the test system is A. baumannii CAN-ICU 63169. As to the method: as §1, §2, §3
For data set [4], the system named is P. aeruginosa CAN-ICU 62308 (gentamicin-resistant). As to the method: as §1, §2, §3
The test system of the next data set is K. pneumoniae ATCC 13883. Here is the method: as §1, §2, §3
Data set [5] has as its system P. aeruginosa CANWARD-2011 96846 (gentamicin-, tobramycin-resistant). As to the method: as §1, §2, §3
For a further data set, the system named is E. faecium ATCC 27270. Here is the method: as §1, §2, §3
The test system of another data set is S. aureus ATCC 29213. Here is the method:
as §1, §2, §3

The next data set has as its system E. coli ATCC 25922. As to the method:
as §1, §2, §3

Another data set concerns E. faecalis ATCC 29212. Here is the method: as §1, §2, §3
Data set [6] deals with P. aeruginosa wild-type PAO1. As to the method: as §1, §2, §3
For data set [7], the system named is E. coli CAN-ICU 61714 (gentamicin-resistant). Here is the method:
as §1, §2, §3

In data set [8] the test system is methicillin-resistant S. aureus ATCC 33592. As to the method: as §1, §2, §3
Data set [9] concerns methicillin-resistant S. epidermidis CAN-ICU 61589 (ceftazidime-resistant). The following applies: methicillin-resistant CAN-ICU 61589 (ceftazidime-resistant). As to the method:
as §1, §2, §3

In data set [10] the test system is S. maltophilia CAN-ICU 62584. Here is the method: as §1, §2, §3
A further data set has as its system P. aeruginosa ATCC 27853. Here is the method: as §1, §2, §3
The test system of data set [11] is methicillin-susceptible Staphylococcus epidermidis CANWARD-2008 81388. The settings on record: methicillin-susceptible CANWARD-2008 81388. Here is the method:
as §1, §2, §3

Where two headings read alike, the source gives them in different places. Peptide text beside a SMILES is read from it. * marks the point of attachment. Acetyl(1-adamantyl) = O=C(CC12CC3CC(CC(C3)C1)C2)*; Palmitoyl = CCCCCCCCCCCCCCCC(=O)*; Lauroyl = CCCCCCCCCCCC(=O)*; Octanoyl = CCCCCCCC(=O)*

A word on the MIC: it is the lowest concentration found to suppress growth. On to `CCCCCCCCCCCCCCCC(=O)N1CCC[C@H]1C(=O)N[C@@H](CCCNC(=N)N)C(=O)N1CCC[C@H]1C(=O)N[C@@H](CC(C)C)C(=O)N1CCC[C@H]1C(=O)N[C@@H](CCCNC(=N)N)C(=O)N1CCC[C@H]1C(N)=O` [Compound C16-PLP, CH3(CH2)14CO-PRPLPRP-NH2] (Palmitoyl-PRPLPRP-NH2), for which the “MHC (minimum concentration that resulted in 5% red blood cell hemolysis)” value with pig erythrocytes was found to be 16 µg/mL. Moreover, the minimal inhibitory concentration (MIC) in data set [1] is 64 µg/mL; in [2] it was 128 µg/mL; in data set [3], 128 µg/mL; in data set [4], greater than 128 µg/mL; in the data set on K. pneumoniae ATCC 13883, 128 µg/mL; in [5], greater than 128 µg/mL. The MIC is 64 µg/mL in the data set with E. faecium ATCC 27270; 64 µg/mL in the data set with S. aureus ATCC 29213; 128 µg/mL in the data set on E. coli ATCC 25922; 64 µg/mL with E. faecalis ATCC 29212; 32 µg/mL in data set [6]; 64 µg/mL in data set [7]. Further, the MIC in data set [8] is 64 µg/mL; in [9], 64 µg/mL; in [10], greater than 128 µg/mL; in the data set on P. aeruginosa ATCC 27853, greater than 128 µg/mL; in data set [11] it was 32 µg/mL.

With `N=C(N)NCCC[C@H](NC(=O)[C@@H]1CCCN1C(=O)[C@H](Cc1c[nH]c2ccccc12)NC(=O)[C@@H]1CCCN1C(=O)[C@H](CCCNC(=N)N)NC(=O)[C@@H]1CCCN1C(=O)CC12CC3CC(CC(C3)C1)C2)C(=O)N1CCC[C@H]1C(N)=O` [Ad-PWP, Adamantyl-CH2CO-PRPWPRP-NH2] ({Acetyl(1-adamantyl)}-PRPWPRP-NH2), the “MHC (minimum concentration that resulted in 5% red blood cell hemolysis)” value in the data set on pig erythrocytes (red cells of porcine) was greater than 512 µg/mL. Moreover, the MIC (in data set [1]; in data set [2]; in [3]; in data set [4]; in the data set on K. pneumoniae ATCC 13883; in data set [5]) was greater than 128 µg/mL in each case. The MIC in the data set with E. faecium ATCC 27270 is greater than 128 µg/mL; in the data set on S. aureus ATCC 29213, greater than 128 µg/mL; in the data set with E. coli ATCC 25922, greater than 128 µg/mL; in the data set with E. faecalis ATCC 29212, greater than 128 µg/mL; in data set [6] it was greater than 512 µg/mL; in data set [7] it was greater than 128 µg/mL. In addition, the MIC (in data set [8]; in data set [9]; in [10]; in the data set with P. aeruginosa ATCC 27853; in data set [11]) was greater than 128 µg/mL throughout.

In the case of `CC(C)C[C@H](NC(=O)[C@@H]1CCCN1C(=O)[C@H](CCCNC(=N)N)NC(=O)[C@@H]1CCCN1C(=O)CC12CC3CC(CC(C3)C1)C2)C(=O)N1CCC[C@H]1C(=O)N[C@@H](CCCNC(=N)N)C(=O)N1CCC[C@H]1C(N)=O` [Ad-PLP, Adamantyl-CH2CO-PRPLPRP-NH2] ({Acetyl(1-adamantyl)}-PRPLPRP-NH2), in the data set on pig erythrocytes (red cells of porcine), the “MHC (minimum concentration that resulted in 5% red blood cell hemolysis)” value was greater than 512 µg/mL. Besides, the minimum inhibitory concentration (MIC) (in data set [1]; in [2]; in data set [3]; in data set [4]; with K. pneumoniae ATCC 13883; in [5]) was greater than 128 µg/mL in each case. Also, the MIC in the data set with E. faecium ATCC 27270 was greater than 128 µg/mL; in the data set on S. aureus ATCC 29213 it was greater than 128 µg/mL; with E. coli ATCC 25922, greater than 128 µg/mL; in the data set with E. faecalis ATCC 29212, greater than 128 µg/mL; in data set [6], greater than 512 µg/mL; in [7], greater than 128 µg/mL. Moreover, the MIC (in [8]; in data set [9]; in data set [10]; in the data set on P. aeruginosa ATCC 27853; in data set [11]) was greater than 128 µg/mL each time.

As to `CCCCCCCC(=O)N1CCC[C@H]1C(=O)N[C@@H](CCCNC(=N)N)C(=O)N1CCC[C@H]1C(=O)N[C@@H](Cc1c[nH]c2ccccc12)C(=O)N1CCC[C@H]1C(=O)N[C@@H](CCCNC(=N)N)C(=O)N1CCC[C@H]1C(N)=O` [Compound C8-PWP, CH3(CH2)6CO-PRPWPRP-NH2] (Octanoyl-PRPWPRP-NH2), the “MHC (minimum concentration that resulted in 5% red blood cell hemolysis)” value in the data set on pig erythrocytes (red cells of porcine) was greater than 512 µg/mL. Moreover, the minimal inhibitory concentration (MIC) (in data set [1]; in data set [2]; in data set [3]; in [4]; with K. pneumoniae ATCC 13883; in [5]) was greater than 128 µg/mL in each case. The MIC in the data set with E. faecium ATCC 27270 was greater than 128 µg/mL; with S. aureus ATCC 29213, greater than 128 µg/mL; in the data set on E. coli ATCC 25922 it was greater than 128 µg/mL; with E. faecalis ATCC 29212 it was greater than 128 µg/mL; in data set [6] it was greater than 512 µg/mL; in [7], greater than 128 µg/mL. The MIC (in data set [8]; in data set [9]; in data set [10]; in the data set with P. aeruginosa ATCC 27853; in data set [11]) was greater than 128 µg/mL each time.

With `CCCCCCCCCCCC(=O)N1CCC[C@H]1C(=O)N[C@@H](CCCNC(=N)N)C(=O)N1CCC[C@H]1C(=O)N[C@@H](Cc1c[nH]c2ccccc12)C(=O)N1CCC[C@H]1C(=O)N[C@@H](CCCNC(=N)N)C(=O)N1CCC[C@H]1C(N)=O` [Compound C12-PWP, CH3(CH2)10CO-PRPWPRP-NH2] (Lauroyl-PRPWPRP-NH2), the “MHC (minimum concentration that resulted in 5% red blood cell hemolysis)” value in the data set on pig erythrocytes came to 64 µg/mL. Besides, the minimum inhibitory concentration (MIC) in [1] is 128 µg/mL; in data set [2] it was 128 µg/mL; in [3] it was 128 µg/mL; in [4] it was greater than 128 µg/mL; with K. pneumoniae ATCC 13883, greater than 128 µg/mL; in [5], greater than 128 µg/mL. For the same compound, the MIC came out at 32 µg/mL in the data set with E. faecium ATCC 27270; 32 µg/mL in the data set on S. aureus ATCC 29213; 128 µg/mL in the data set with E. coli ATCC 25922; 32 µg/mL in the data set on E. faecalis ATCC 29212; 64 µg/mL in [6]; 128 µg/mL in data set [7]. Also, the minimal inhibitory concentration (MIC) was 32 µg/mL in data set [8]; 16 µg/mL in [9]; greater than 128 µg/mL in data set [10]; greater than 128 µg/mL with P. aeruginosa ATCC 27853; 16 µg/mL in [11].
